Activity calls are given as the source filed them.
Experiments:
[1] = molecular target: T1, Coagulation factor XII (Homo sapiens, UniProt P00748); test: activated coagulation factor XII inhibitor potency, concentration-effect curve, cell-free (AID 716); assay type: functional
T1 sequence (P00748 whole entry): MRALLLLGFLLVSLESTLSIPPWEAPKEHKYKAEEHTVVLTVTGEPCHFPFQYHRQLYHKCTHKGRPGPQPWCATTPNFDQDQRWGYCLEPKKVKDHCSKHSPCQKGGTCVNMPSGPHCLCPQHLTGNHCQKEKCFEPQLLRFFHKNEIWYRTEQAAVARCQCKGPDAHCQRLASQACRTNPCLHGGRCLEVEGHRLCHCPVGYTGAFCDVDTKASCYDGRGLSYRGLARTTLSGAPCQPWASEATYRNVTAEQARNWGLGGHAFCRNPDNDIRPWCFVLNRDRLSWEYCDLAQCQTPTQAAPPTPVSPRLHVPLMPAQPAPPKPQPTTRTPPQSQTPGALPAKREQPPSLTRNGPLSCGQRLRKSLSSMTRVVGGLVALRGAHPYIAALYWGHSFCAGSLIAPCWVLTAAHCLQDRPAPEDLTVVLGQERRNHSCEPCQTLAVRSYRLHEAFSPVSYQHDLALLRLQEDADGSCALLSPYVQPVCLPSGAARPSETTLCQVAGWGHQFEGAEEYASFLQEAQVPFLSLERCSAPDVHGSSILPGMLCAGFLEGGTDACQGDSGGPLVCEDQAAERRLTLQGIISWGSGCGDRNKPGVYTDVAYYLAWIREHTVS

[2] = molecular target: T2, Tyrosine-protein phosphatase non-receptor type 7 (Homo sapiens, UniProt P35236); test: inhibition of hematopoietic tyrosine phosphatase HePTP – biochemical, set 2, SAR follow-up (AID 449736); assay type: functional
T2 sequence (P35236 whole entry): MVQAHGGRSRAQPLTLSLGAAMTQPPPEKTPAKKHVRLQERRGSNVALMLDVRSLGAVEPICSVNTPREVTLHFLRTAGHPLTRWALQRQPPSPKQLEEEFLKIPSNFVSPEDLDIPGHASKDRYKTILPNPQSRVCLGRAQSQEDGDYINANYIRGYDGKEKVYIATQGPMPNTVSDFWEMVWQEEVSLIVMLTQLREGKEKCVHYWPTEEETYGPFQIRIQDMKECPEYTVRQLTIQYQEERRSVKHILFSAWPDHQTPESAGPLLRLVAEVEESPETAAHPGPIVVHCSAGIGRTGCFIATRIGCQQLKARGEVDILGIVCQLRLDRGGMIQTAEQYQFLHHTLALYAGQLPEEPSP

[3] = molecular target: Protein phosphatase methylesterase 1 (Homo sapiens, UniProt Q9Y570); test: endogenous PME-1 and serine hydrolase inhibition – cell lysate, mouse brain cytosol, FP-rhodamine, gel ABPP, selectivity assay for PME-1 inhibitor project, dose response, panel member PME-1 Assay Panel member description: Inhibition of endogenously expressed PME-1 (AID 2366)
[4] = tested on: Trypanosoma cruzi; test: anti-trypanosomal activity in host cells – cell-based, plate reader, dry powder, set 3, dose response (AID 493197); assay type: functional
[5] = NIH/3T3 cell viability loss – mouse embryonic fibroblasts, dry powder, set 2, cytotoxicity control, dose response (AID 493247); assay type: functional, cell-based; settings: Fibroblast
[6] = molecular target: T3, Intestinal-type alkaline phosphatase (Homo sapiens, UniProt P09923); test: human intestinal alkaline phosphatase activators, dose response, biochemical, luminescence, uHTS hits (AID 463120); assay type: functional
[7] = molecular target: T3, Intestinal-type alkaline phosphatase; test: Dose Response confirmation of uHTS hits from a small molecule inhibitors of human intestinal alkaline phosphatase via a luminescent assay. [Related pubchem assays (depositor defined):AID2544, AID2574]; assay type: functional

T3 sequence (P09923 whole entry): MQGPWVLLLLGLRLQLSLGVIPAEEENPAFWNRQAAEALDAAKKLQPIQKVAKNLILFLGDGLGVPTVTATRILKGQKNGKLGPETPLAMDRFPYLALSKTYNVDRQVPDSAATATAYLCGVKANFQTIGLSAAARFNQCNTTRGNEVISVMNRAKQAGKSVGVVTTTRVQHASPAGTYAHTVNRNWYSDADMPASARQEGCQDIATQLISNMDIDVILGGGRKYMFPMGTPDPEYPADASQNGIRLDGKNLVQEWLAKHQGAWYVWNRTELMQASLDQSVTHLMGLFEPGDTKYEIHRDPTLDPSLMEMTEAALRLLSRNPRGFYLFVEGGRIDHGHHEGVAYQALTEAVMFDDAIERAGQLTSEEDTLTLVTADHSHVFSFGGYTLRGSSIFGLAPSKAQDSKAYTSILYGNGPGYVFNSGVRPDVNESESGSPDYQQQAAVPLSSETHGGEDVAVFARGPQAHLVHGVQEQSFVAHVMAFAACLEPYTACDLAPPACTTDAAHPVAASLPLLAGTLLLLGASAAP
Chain of Protein phosphatase methylesterase 1 (Q9Y570 whole entry): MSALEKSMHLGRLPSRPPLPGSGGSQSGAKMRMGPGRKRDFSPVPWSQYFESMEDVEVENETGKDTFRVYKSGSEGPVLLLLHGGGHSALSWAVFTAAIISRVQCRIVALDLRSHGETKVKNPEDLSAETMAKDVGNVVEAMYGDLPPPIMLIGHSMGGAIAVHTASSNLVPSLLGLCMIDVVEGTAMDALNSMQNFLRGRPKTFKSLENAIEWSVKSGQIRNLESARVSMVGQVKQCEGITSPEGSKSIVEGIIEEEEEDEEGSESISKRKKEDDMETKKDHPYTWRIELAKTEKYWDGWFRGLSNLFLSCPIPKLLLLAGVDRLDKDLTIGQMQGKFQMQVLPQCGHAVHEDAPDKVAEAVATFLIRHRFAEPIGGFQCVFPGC

For `COc1ccc(NC(=O)CSc2nnc(CNC(=O)COc3ccc(Cl)cc3)o2)c(OC)c1`, the IC50 [1] was > 50 µM (inactive).

In the case of `Cc1ccc(NC(=O)c2sc(=S)n(-c3cc(C)ccc3F)c2N)cc1`, the IC50 [2] is reported as 87.1 µM (active).

In the case of `N#CC(C#N)=Cc1cccn1S(=O)(=O)c1ccc(F)cc1F`, the IC50 [3] is reported as 20 µM (inactive).

With `COc1ccc(CCN(C)C(=O)C2CCCN(Cc3ccc(F)cc3)C2)cc1OC` (configuration not stated) the AC50 [4] was 4.33 µM (active) and the AC50 [5] was 64.7 µM (active).

In the case of `CCn1cc(CN2CCN(C)C(CCO)C2)c2ccccc21` (configuration not stated), the EC50 [6] is reported as > 100 µM (inactive) and the IC50 [7] is reported as > 100 µM (inactive).
